# From patent publication US11638427B2, “Methods and compositions for altering secondary metabolites in plants” (Impello Biosciences, Inc, priority 2020, dated 2023)
# Tests used:
# grapes = assay: Fruit MDJ dips, 2 weeks observation; type: in vivo; conditions: dip 5, 10, 20 mM
# Experimental: (§1) For fruit MDJ dips, all fruits were purchased from a local market as certified organic on 4/13/2021. Before any treatments, all fruits were submerged in boiling water to melt off any non-natural waxy coating then dried with a washcloth. Once fruits were clean and dry, they were submerged in varying concentrations of methyl dihydrojasmonate solutions. Each solution was prepared from a 1M MDJ Tween 20 stock solution diluted with RO water. 500 ml of each solution was prepared and reused for the different fruits. Each fruit was submerged for 20 seconds and then left to dry on a paper towel. After the fruits were dry the paper towels were removed and fruits left on the lab bench at room temperature grouped by treatment but not touching and monitored for visual differences for 2 weeks. The pineapple was the only fruit that was not fully submerged but instead sprayed till drip with the varying concentration of MDJ/Tween 20 solution. Then left to dry and monitored the same as the other fruits.
# (§2) Treatments and Sample Sizes:
# (§3) Control, water—4 lemons, 2 oranges, 1 pineapple, 1 mango, 4 strawberries, 2 grapes (˜10 grapes/bundle), 2 oranges, 4 avocados
# (§4) [5] mM MDJ—4 lemons, 3 oranges, 1 pineapple, 1 mango, 4 strawberries, 2 grapes, 2 oranges, 4 avocados
# (§5) [10] mM MDJ—4 lemons, 3 oranges, 0 pineapple, 1 mango, 4 strawberries, 2 grapes, 2 oranges, 4 avocados
# (§6) [20] mM MDJ—5 lemons, 3 oranges, 1 pineapple, 1 mango, 4 strawberries, 2 grapes, 2 oranges, 4 avocados
# (§7) Qualitative observations like color changes, firmness, mold appearance were monitored and at the end of the two weeks all fruits were cut in half to record and further observations. Penetrometer readings were recorded in the last week of observations.
# lemons = assay: Fruit MDJ dips, 2 weeks observation; type: in vivo; conditions: dip 5, 10, 20 mM for 20 seconds; 2 weeks at room temperature
# Experimental: as §1, §2, §3, §4, §5, §6, §7
# blood oranges = assay: Fruit MDJ dips, 2 weeks observation; type: in vivo; conditions: dip 5, 10, 20 mM; observation period 2 weeks
# Experimental: as §1, §2, §3, §4, §5, §6, §7
# oranges = assay: Fruit MDJ dips, 2 weeks observation; type: in vivo; conditions: dip 5, 10, 20 mM
# Experimental: as §1, §2, §3, §4, §5, §6, §7
# mangoes = assay: Fruit MDJ dips, 2 weeks observation; type: in vivo; conditions: one fruit per group
# Experimental: as §1, §2, §3, §4, §5, §6, §7
# avocados = assay: Fruit MDJ dips, 2 weeks observation; type: in vivo
# Experimental: as §1, §2, §3, §4, §5, §6, §7
# pineapples = assay: Fruit MDJ spray till drip, 2 weeks observation; type: in vivo
# Experimental: as §1, §2
# Control, water—4 lemons, 2 oranges, 1 pineapple, 1 mango, 4 strawberries, 2 grapes (˜10 grapes/bundle), 2 oranges, 4 avocados […]
# as §7
# [1] = system: marijuana variety Lemon Creamsicle; assay: Foliar spray of CJ or MDJ on high-THC marijuana in greenhouse, cannabinoid analysis; type: in vivo, Cannabis spp.; conditions: 7.5 mM foliar spray every 14 days, four treatments
# Experimental: Applicant's previous experiments investigated the effects of jasmonate-type elicitors MeJA, MDJ, and CJ on hemp (high fiber) and high-CBD, (low-THC) varieties of Cannabis. […] Here, the effects of MDJ and CJ application on a high-THC variety in a controlled environment was investigated. High-THC, low-CBD marijuana variety “Lemon Creamsicle” (LC), was grown in a greenhouse setting. LC was used as a plant model due to its historically consistent metabolite profile in the greenhouse environment, making it a stable, known, and reliable variety.
# A four-block plant trial was implemented with a population of N=12 plants and treatment group sizes of n=4. The treatment and control groups were defined as follows: Control=water+0.1% TWEEN®-20 aqueous foliar spray, Treatment 1=[7.5 mM] CJ+0.1% TWEEN®-20 aqueous foliar spray, Treatment 2=[7.5 mM] MDJ+0.1% TWEEN®-20 aqueous foliar spray. A standardized concentration of [7.5 mM] for both CJ and MDJ applications was chosen due to its performance in Applicant's past research. All treatment solutions were prepared the day of the application in equal volumes from pre-measured quantities of the stock materials to ensure consistency, i.e., appropriate volumes of CJ or MDJ were combined with appropriate volumes of TWEEN®-20 for each experimental treatment, stored in a sealed centrifuge tube, and diluted in the appropriate amount of water immediately prior to application. Separate sprayers were used for each treatment and control sprays to avoid cross-contamination.
# All plants in the trial were produced as asexual clone stock taken from the same mother plant at the same time to ensure homogeneity. All plants were rooted and grown in accordance with the production practices typical to this greenhouse operator prior to plant selection for the experiment. Due to the layout of the cultivation system, which features immovable hydroponic “pots” that house the plant throughout the entire flowering (i.e., reproductive) phase, all plants included in the experiment were selected from a set section of the greenhouse after final transplant into the hydroponic system and grouped in a complete randomized block design accordingly.
# After defining the plants to include in the experiment, which were organized in two (2) rows of six (6) plants side-by-side in the hydroponic system, the experimental blocks were defined as groups of three plants, and a research randomizer tool (randomizer.org) was used to generate a randomized arrangement of plants in each group. Using a blocked design in this setting helped account for the immovable nature of the plants and the slight, if any, environmental differences (like natural sunlight, shading from other plants, and corner/edge effect) that existed in the small experimental area. Blocking the experimental arrangement also allowed for improved statistical analysis and resolution considering the small sample size and close proximity of the experimental plants.
# After labelling each plant in the experiment with the appropriate group label (Control, T1 [CJ], or T2 [MDJ]), the plants were allowed to grow normally between treatment applications, which were performed every 14 days for a total of four (4) treatments throughout the flowering cycle, which lasted approximately eight (8) weeks. The first treatment occurred seven (7) days after the onset of the flowering cycle, which was dictated by day-length control. Care was taken with each treatment application to minimize overspray onto non-target neighboring plants, and physical barriers were temporarily installed between plants during treatment sprays to aid in this effort. These barriers were removed following treatment sprays when the foliage was no longer visibly wet from the treatment and/or control foliar sprays. […]
# oyster mushroom = assay: Fungal plug growth on jasmonate-infused PDA plates; type: cell-based; conditions: all concentrations (1 mM, 4.25 mM, 10 mM) in PDA; 72 hours and 10 days
# Experimental: MDJ (TCI, CAS No.: 24851-98-7) and CJ were infused into potato dextrose agar (PDA, VWR Cat No.: 90003-494) petri dishes (100×15 mm VWR, Cat No: 25384-094) at concentrations ranging from 1 mM, 4.25 mM, and 10 mM. Each treatment was prepared using a technical grade stock solution of pure chemical (CJ or MDJ) diluted with TWEEN®-20 (VWR, CAS No.: […]). Culturable oyster mushroom and seedling mold served to create fungal mycelial plugs using a sterile 1 mL pipette tip (Eppendorf, Cat No.: 022491458) held upside down. The tips were used to make circle excisions (i.e., fungal plugs) from a mycelial mat grown on PDA with no biochemical infusions. Fungal pugs were then transferred to PDA infused with varying concentrations of CJ or MDJ, and control plates (no CJ or MDJ infusion) to monitor fungal growth at room temperature over time.
structure (smiles),measurement,setting,value
"CCCCCC1C(=O)CCC1CC(=O)OC (stereo not shown) [MDJ, methyl dihydrojasmonate]",mold or observable difference between groups,grapes,"did not exhibit any mold, or observable difference between groups"
same,visual differences externally or internally,lemons,no distinct visual differences
same,mold,blood oranges,no mold in any of the treatment groups
same,mold,oranges,no appearance of mold
same,"internal browning when cut open, relative to the control group",mangoes; dip 5 mM,slightly less
same,"internal browning when cut open, relative to the control group",mangoes; dip 10 mM,less still
same,internal browning when cut open,mangoes; dip 20 mM,no clear browning
same,browning when the fruits were cut open,avocados; dip 5 mM,least signs of browning
same,external browning,avocados; dip 10 mM and 20 mM groups (and control group),more external browning
same,crown appearance,"pineapples; spray till drip 20 mM, control had the greenest crown, followed by 5 mM",most dried out crown
same,mold at the base of the pineapple,"pineapples; spray till drip, control, 5 mM and 20 mM groups, one pineapple per group",showed some mold
same,CBGA average relative percent increase compared to the Control group,[1],15.91%
same,THCA average relative percent increase compared to the Control group,[1],6.88%
same,Total Cannabinoids average relative percent increase compared to the Control group,[1],6.06%
same,Total THC average relative percent increase compared to the Control group,[1],5.92%
same,Oyster mushroom fungal growth compared to control,oyster mushroom,showed inhibition
